Data from ChEMBL document CHEMBL4190372, “Discovery of a Novel Oral Glucocorticoid Receptor Modulator (AZD9567) with Improved Side Effect Profile” (J Med Chem, 2018).
Values after ≈ are worked out from the molar mass of the structure shown.

Experiments:
[1] = Drug metabolism in human hepatocytes treated with N-((1R,2S)-1-(3-chloro-4-cyanophenoxy)-1-(6-methoxypyridin-3-yl)propan-2-yl)-2,2-difluoropropanamide; assay type: ADME, cell-based, Hepatocyte
[2] = Drug metabolism in rat hepatocytes treated with N-((1R,2S)-1-(3-chloro-4-cyanophenoxy)-1-(6-methoxypyridin-3-yl)propan-2-yl)-2,2-difluoropropanamide; assay type: ADME, cell-based, Hepatocyte
[3] = Terminal half life in Han-Wistar rat at 3.5 mg/kg, po; assay type: ADME, organism-based; conditions: in vivo, read-out: beta t1/2 (converted)
Glucocorticoid receptor [4] = target: T1, Glucocorticoid receptor (Homo sapiens, UniProt P04150); conditions: hepatocytes, 18 h
T1 sequence (P04150 whole entry): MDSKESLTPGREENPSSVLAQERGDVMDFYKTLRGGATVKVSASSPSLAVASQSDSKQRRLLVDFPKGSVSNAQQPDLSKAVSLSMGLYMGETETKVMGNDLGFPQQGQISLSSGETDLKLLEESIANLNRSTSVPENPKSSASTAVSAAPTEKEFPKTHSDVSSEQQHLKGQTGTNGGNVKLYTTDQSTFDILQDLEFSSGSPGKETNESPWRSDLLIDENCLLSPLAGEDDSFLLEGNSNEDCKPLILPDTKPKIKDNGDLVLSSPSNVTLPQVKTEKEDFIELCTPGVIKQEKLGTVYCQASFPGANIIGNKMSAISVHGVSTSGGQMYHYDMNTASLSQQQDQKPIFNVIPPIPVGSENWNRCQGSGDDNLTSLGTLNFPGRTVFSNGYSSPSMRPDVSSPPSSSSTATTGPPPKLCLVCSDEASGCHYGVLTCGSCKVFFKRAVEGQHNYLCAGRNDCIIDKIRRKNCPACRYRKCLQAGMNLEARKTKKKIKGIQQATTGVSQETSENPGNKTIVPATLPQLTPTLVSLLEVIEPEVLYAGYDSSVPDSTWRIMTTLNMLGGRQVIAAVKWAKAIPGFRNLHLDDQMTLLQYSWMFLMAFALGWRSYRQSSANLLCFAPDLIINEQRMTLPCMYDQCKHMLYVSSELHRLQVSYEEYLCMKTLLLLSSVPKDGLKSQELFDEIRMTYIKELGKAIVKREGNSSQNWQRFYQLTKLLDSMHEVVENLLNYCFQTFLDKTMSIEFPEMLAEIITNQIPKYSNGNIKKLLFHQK
Description: Transactivation of GR in cryopreserved human primary hepatocytes assessed as upregulation of TAT mRNA expression level after 18 hrs by RT-qPCR analysis

Rattus norvegicus [5] = assay: Dose normalized Cmax in Han-Wistar rat at 3.5 mg/kg, po; assay type: ADME, organism-based; conditions: in vivo
[6] = Terminal half life in Han-Wistar rat at 0.9 mg/kg, iv; assay type: ADME, organism-based; conditions: in vivo, read-out: beta t1/2 (converted)
Rattus norvegicus [7] = assay: Antiinflammatory activity in streptococcal cell wall reactivation Lewis rat model assessed as reduction of joint swelling at 5 mg/kg administered once daily for 8 days by oral gavage starting 1 day prior to streptococcal cell wall challenge measured during 6 days post challenge relative to control; assay type: functional; set-up: scale not given: the % may be the effect or the level left
Estrogen receptor = target: T2, Estrogen receptor (Homo sapiens, UniProt P03372); assay: Binding affinity to human ERalpha expressed in Sf9 cells by fluoligand binding-based fluorescence polarization method
T2 sequence (P03372 whole entry): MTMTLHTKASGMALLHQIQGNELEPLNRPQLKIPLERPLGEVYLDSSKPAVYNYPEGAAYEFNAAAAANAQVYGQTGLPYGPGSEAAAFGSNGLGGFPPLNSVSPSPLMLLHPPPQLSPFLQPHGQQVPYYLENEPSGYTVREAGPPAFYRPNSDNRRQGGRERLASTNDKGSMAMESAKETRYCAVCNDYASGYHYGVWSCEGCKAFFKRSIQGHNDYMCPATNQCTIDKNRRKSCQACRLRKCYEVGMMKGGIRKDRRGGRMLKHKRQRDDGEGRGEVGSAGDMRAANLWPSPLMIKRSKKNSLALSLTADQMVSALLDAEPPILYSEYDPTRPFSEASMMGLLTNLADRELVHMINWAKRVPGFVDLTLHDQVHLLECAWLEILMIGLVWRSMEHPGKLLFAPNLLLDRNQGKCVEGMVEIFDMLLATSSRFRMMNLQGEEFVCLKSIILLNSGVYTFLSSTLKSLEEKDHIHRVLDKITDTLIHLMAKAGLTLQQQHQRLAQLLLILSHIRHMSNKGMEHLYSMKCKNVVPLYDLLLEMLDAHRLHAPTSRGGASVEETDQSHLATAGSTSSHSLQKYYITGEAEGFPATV

[8] = Clearance in Han-Wistar rat at 0.9 mg/kg, iv; assay type: ADME, organism-based; conditions: in vivo
[9] = target: T3, Glucocorticoid receptor (Homo sapiens) (UniProt P04150)
T3 sequence (whole entry): T1 sequence (P04150 whole entry)
Description: Transrepression of GR in cryopreserved human fetal osteoblasts assessed as inhibition of OPG mRNA expression after 4 hrs by RT-qPCR analysis

Estrogen receptor beta = Estrogen receptor beta (Homo sapiens, UniProt Q92731); assay: Binding affinity to human ERbeta expressed in Sf9 cells by fluoligand binding-based fluorescence polarization method
Rattus norvegicus [10] = assay: Dose normalized AUC (0 to infinity) in Han-Wistar rat at 3.5 mg/kg, po; assay type: ADME, organism-based; conditions: in vivo
[11] = Aqueous solubility of the compound; assay type: physicochemical; conditions: aqueous; read-out: solubility
[12] = Volume of distribution at steady state in Han-Wistar rat at 0.9 mg/kg, iv; assay type: ADME, organism-based; conditions: in vivo, read-out: Vdss
Rattus norvegicus [13] = assay: Antiinflammatory activity in streptococcal cell wall reactivation Lewis rat model assessed as reduction of joint swelling at 20 mg/kg administered once daily for 8 days by oral gavage starting 1 day prior to streptococcal cell wall challenge measured during 6 days post challenge relative to control; assay type: functional; set-up: scale not given: the % may be the effect or the level left
[14] = Tmax in Han-Wistar rat at 3.5 mg/kg, po; assay type: ADME, organism-based; conditions: in vivo
[15] = target: T4, Mineralocorticoid receptor (Homo sapiens, UniProt P08235); assay: Displacement of [3H]-aldosterone from human mineralocorticoid receptor LBD (729 to 984 residues) after 1 hr by scintillation proximity assay
T4 sequence (P08235 whole entry): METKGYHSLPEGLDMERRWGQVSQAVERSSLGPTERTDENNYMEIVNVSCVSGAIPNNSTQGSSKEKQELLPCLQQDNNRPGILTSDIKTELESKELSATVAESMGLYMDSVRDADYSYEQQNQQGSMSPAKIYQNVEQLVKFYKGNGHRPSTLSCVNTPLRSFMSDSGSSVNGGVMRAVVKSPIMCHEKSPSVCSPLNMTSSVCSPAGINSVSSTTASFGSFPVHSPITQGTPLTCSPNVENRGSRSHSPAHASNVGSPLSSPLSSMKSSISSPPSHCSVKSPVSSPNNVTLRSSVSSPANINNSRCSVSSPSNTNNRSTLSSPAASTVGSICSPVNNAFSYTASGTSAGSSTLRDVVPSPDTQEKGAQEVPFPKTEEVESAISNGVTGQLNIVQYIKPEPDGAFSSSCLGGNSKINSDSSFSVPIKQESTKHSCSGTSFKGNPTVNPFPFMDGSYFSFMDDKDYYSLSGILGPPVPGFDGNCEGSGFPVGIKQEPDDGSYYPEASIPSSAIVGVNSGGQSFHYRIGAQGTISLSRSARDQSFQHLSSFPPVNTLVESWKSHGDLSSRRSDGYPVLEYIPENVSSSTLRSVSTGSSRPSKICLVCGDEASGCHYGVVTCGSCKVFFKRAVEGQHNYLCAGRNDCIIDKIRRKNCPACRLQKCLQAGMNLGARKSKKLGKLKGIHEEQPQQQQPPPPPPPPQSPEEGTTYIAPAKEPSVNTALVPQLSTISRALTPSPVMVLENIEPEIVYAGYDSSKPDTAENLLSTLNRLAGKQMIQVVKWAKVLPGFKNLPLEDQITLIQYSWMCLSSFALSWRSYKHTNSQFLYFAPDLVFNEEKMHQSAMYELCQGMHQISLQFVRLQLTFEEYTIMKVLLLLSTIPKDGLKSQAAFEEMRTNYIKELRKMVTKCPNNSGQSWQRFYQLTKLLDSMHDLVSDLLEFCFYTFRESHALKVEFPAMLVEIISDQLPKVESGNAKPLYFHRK

Glucocorticoid receptor [16] = target: T1, Glucocorticoid receptor
Description: Transactivation activity at glucocorticoid receptor (unknown origin) expressed in human ChaGoK1 cells incubated for 24 hrs by beta-galactosidase reporter gene assay

[17] = target: T3, Glucocorticoid receptor (Homo sapiens); remark: listed apart in the source
Description: (§1) Transrepression of GR in human whole blood assessed as inhibition of LPS-induced TNF-alpha release preincubated for 45 mins followed by LPS addition after 18 hrs by AlphaLISA method

Hepatocyte = assay: Stability in rat hepatocytes; assay type: ADME, cell-based
Glucocorticoid receptor [18] = target: T1, Glucocorticoid receptor; assay: Displacement of fluormone RED from human full length glucocorticoid receptor after 4 hrs by fluorescence polarization assay
Glucocorticoid receptor [19] = target: T1, Glucocorticoid receptor; assay: Antagonist activity at glucocorticoid receptor (unknown origin) expressed in human ChaGoK1 cells assessed as inhibition of dexamethasone induced transactivation incubated for 24 hrs by beta-galactosidase reporter gene assay; assay type: cell-based
Glucocorticoid receptor [20] = target: T1, Glucocorticoid receptor; conditions: blood
Description: Therapeutic index, ratio of fIC20 for transrepression of GR in cryopreserved human fetal osteoblasts assessed as inhibition of OPG mRNA expression to fIC30 for transrepression of GR in human whole blood assessed as inhibition of LPS-induced TNF-alpha release

Glucocorticoid receptor [21] = target: T1, Glucocorticoid receptor; remark: listed apart in the source
Description: as §1

Glucocorticoid receptor [22] = target: T1, Glucocorticoid receptor; remark: listed apart in the source
Description: Transrepression activity at glucocorticoid receptor (unknown origin) expressed in human ChaGoK1 cells assessed as inhibition of PMA-stimulated gene expression incubated for 24 hrs by beta-galactosidase reporter gene assay

Glucocorticoid receptor [23] = target: T1, Glucocorticoid receptor; assay: Transactivation of GR in cryopreserved human primary hepatocytes assessed as upregulation of TAT mRNA expression level up to 1 uM after 18 hrs by RT-qPCR analysis
[24] = Drug metabolism in rat hepatocytes assessed as N-((1R,2S)-1-(3-chloro-4-cyanophenoxy)-1-(6-hydroxypyridin-3-yl)propan-2-yl)-2,2-difluoropropanamide formation; assay type: ADME, cell-based, Hepatocyte
[25] = Drug metabolism in human hepatocytes assessed as N-((1R,2S)-1-(3-chloro-4-cyanophenoxy)-1-(6-hydroxypyridin-3-yl)propan-2-yl)-2,2-difluoropropanamide formation; assay type: ADME, cell-based, Hepatocyte

Estrogen receptor beta, sequence (Q92731 whole entry): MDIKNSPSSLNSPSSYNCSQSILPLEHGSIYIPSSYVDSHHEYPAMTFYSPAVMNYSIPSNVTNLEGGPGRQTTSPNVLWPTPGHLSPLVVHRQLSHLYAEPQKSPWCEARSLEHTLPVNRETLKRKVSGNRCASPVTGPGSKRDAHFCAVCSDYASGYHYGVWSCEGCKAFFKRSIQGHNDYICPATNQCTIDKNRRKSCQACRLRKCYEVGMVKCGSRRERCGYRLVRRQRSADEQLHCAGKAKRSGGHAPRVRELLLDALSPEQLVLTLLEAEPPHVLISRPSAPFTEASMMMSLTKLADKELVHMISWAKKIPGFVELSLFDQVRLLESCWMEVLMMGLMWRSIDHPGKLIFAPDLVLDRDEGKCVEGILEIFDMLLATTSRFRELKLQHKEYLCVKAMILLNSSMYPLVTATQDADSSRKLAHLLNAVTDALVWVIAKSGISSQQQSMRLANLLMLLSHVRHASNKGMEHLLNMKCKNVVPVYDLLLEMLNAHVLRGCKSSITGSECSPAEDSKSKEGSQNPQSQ

## C[C@H](NC(=O)C(C)(F)F)[C@H](Oc1ccc(C#N)c(Cl)c1)c1ccc(O)nc1
[1]
  Drug metabolism: Metabolite_Detected
[2]
  Drug metabolism: Metabolite_Detected

## C[C@]12C=CC(=O)C=C1CC[C@@H]1[C@@H]2[C@@H](O)C[C@@]2(C)[C@H]1CC[C@]2(O)C(=O)CO [PREDNISOLONE]
[3]
  half-life: 150 min
Glucocorticoid receptor [4]
  fEC50: 24 nM
Rattus norvegicus [5]
  Cmax/dose: 100 nM
[6]
  half-life: 24 min
Rattus norvegicus [7]
  Activity: 59%
Estrogen receptor
  IC50: > 100000 nM
[8]
  clearance: 90 mL/min/kg
[9]
  fIC20: 0.88 nM
Estrogen receptor beta
  IC50: > 100000 nM
Rattus norvegicus [10]
  AUC/dose: 0.094 µM·h
[11]
  solubility: 310 µM (≈ 112 µg/mL)
[12]
  Vd: 1.2 L/kg
Rattus norvegicus [13]
  Activity: 73%
[14]
  Tmax: 16.8 min
[15]
  IC50: 11 nM

## Cc1nnc(C(=O)N[C@@H](C(C)O)[C@H](Oc2ccc3c(cnn3-c3ccc(F)cc3)c2)c2cc(F)cc(F)c2)o1 (single isomer, unassigned)
Glucocorticoid receptor [16]
  EC50: 3.5 nM
[17]
  fIC30: 0.53 nM
Hepatocyte
  Stability: Stable
Glucocorticoid receptor [18]
  IC50: 16 nM
Glucocorticoid receptor [19]
  IC50: 270 nM
Glucocorticoid receptor [20]
  TI: 0.076
[9]
  fIC20: 0.04 nM
Glucocorticoid receptor [21]
  IC50: 180 nM
[11]
  solubility: 0.9 µM (≈ 0.484 µg/mL)
Glucocorticoid receptor [22]
  IC50: 1.6 nM
Glucocorticoid receptor [23]
  Activity: Not Active

## COc1ccc([C@@H](Oc2ccc(C#N)c(Cl)c2)[C@H](C)NC(=O)C(C)(F)F)cn1
Glucocorticoid receptor [16]
  EC50: 33 nM
[24]
  Drug metabolism: Metabolite_Detected
Glucocorticoid receptor [18]
  IC50: < 4 nM
[11]
  solubility: 100 µM (≈ 41 µg/mL)
Glucocorticoid receptor [22]
  IC50: 9.3 nM
[25]
  Drug metabolism: Metabolite_Detected
